Test results from ChEMBL document CHEMBL4507274 (2021).

Tests used:
[1] = molecular target: Hormonally up-regulated neu tumor-associated kinase (Homo sapiens) (UniProt P57058); conditions: Compound concentration 100.0 nM
[2] = molecular target: STE20-like serine/threonine-protein kinase (Homo sapiens) (UniProt Q9H2G2); conditions: Compound concentration 100.0 nM
[3] = molecular target: Tyrosine-protein kinase ABL1 (Homo sapiens) (UniProt P00519); conditions: Compound concentration 100.0 nM
[4] = molecular target: Tyrosine-protein kinase Yes (Homo sapiens) (UniProt P07947); conditions: Compound concentration 100.0 nM
[5] = molecular target: Mast/stem cell growth factor receptor Kit (Homo sapiens) (UniProt P10721); conditions: Compound concentration 100.0 nM
[6] = molecular target: Phosphatidylinositol 4-phosphate 3-kinase C2 domain-containing subunit beta (Homo sapiens) (UniProt O00750); conditions: Compound concentration 100.0 nM
[7] = molecular target: Non-receptor tyrosine-protein kinase TNK1 (Homo sapiens) (UniProt Q13470); conditions: Compound concentration 100.0 nM
[8] = molecular target: cAMP-dependent protein kinase catalytic subunit beta (Homo sapiens) (UniProt P22694); conditions: Compound concentration 100.0 nM
[9] = molecular target: Serine/threonine-protein kinase pim-2 (Homo sapiens) (UniProt Q9P1W9); conditions: Compound concentration 100.0 nM
[10] = molecular target: Testis-specific serine/threonine-protein kinase 1 (Homo sapiens) (UniProt Q9BXA7); conditions: Compound concentration 100.0 nM
[11] = molecular target: Serine/threonine-protein kinase Nek1 (Homo sapiens) (UniProt Q96PY6); conditions: Compound concentration 100.0 nM
[12] = molecular target: cAMP-dependent protein kinase catalytic subunit PRKX (Homo sapiens) (UniProt P51817); conditions: Compound concentration 100.0 nM
[13] = molecular target: Phosphatidylinositol 5-phosphate 4-kinase type-2 gamma (Homo sapiens) (UniProt Q8TBX8); conditions: Compound concentration 100.0 nM
[14] = molecular target: T1, Dual specificity mitogen-activated protein kinase kinase 7 (Homo sapiens) (UniProt O14733); conditions: Compound concentration 100.0 nM
T1 sequence (whole entry): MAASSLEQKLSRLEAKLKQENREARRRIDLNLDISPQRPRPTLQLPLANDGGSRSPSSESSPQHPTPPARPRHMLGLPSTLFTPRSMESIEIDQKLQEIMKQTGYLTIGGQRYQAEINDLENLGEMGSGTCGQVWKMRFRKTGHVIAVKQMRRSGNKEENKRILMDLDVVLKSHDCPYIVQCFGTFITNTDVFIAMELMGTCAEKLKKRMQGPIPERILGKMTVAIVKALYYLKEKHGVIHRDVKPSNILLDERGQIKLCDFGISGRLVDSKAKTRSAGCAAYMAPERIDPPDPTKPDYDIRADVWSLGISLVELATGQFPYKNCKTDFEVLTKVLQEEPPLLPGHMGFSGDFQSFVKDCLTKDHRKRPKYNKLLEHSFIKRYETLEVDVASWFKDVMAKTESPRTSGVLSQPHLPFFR

[15] = molecular target: Activin receptor type-2A (Homo sapiens) (UniProt P27037); conditions: Compound concentration 100.0 nM
[16] = molecular target: Homeodomain-interacting protein kinase 2 (Homo sapiens) (UniProt Q9H2X6); conditions: Compound concentration 100.0 nM
[17] = molecular target: Ribosomal protein S6 kinase alpha-5 (Homo sapiens) (UniProt O75582); conditions: Compound concentration 100.0 nM
[18] = molecular target: Receptor-interacting serine/threonine-protein kinase 4 (Homo sapiens) (UniProt P57078); conditions: Compound concentration 100.0 nM
[19] = test system: Phosphatidylinositol 4,5-bisphosphate 3-kinase catalytic subunit alpha isoform (Homo sapiens), P42336 [H1047Y]; conditions: Compound concentration 100.0 nM
[20] = molecular target: Phosphatidylinositol 4,5-bisphosphate 3-kinase catalytic subunit alpha isoform (Homo sapiens) (UniProt P42336); conditions: Compound concentration 100.0 nM
[21] = test system: Receptor-type tyrosine-protein kinase FLT3 (Homo sapiens), P36888 [D835V]; conditions: Compound concentration 100.0 nM
[22] = molecular target: T2, Serine/threonine-protein kinase D1 (Homo sapiens) (UniProt Q15139); conditions: Compound concentration 100.0 nM
T2 sequence (whole entry): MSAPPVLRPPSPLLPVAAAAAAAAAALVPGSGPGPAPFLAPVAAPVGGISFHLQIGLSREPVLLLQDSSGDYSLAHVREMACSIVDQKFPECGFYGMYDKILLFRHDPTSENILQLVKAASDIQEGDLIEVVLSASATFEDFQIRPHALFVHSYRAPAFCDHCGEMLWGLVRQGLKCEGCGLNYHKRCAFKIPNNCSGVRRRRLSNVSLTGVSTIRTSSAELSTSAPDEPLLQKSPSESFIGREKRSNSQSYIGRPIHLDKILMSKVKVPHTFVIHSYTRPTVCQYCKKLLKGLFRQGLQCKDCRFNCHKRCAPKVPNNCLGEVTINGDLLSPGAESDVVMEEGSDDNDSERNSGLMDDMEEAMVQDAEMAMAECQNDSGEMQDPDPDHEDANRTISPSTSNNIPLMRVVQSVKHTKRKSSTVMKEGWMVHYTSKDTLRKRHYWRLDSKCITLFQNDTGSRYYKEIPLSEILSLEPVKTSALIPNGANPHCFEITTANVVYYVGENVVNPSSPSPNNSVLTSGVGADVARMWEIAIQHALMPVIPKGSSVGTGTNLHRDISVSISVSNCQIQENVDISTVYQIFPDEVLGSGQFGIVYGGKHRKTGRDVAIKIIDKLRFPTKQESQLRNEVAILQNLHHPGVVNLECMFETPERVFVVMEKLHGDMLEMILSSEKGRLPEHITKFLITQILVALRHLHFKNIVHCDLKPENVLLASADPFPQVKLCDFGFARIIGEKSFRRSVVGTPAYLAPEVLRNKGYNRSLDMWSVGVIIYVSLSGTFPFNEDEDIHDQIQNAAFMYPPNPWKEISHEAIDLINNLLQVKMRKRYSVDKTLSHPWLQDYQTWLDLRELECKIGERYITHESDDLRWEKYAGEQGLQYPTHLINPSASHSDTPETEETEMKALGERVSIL

[23] = molecular target: Serine/threonine-protein kinase Nek5 (Homo sapiens) (UniProt Q6P3R8); conditions: Compound concentration 100.0 nM
[24] = molecular target: G protein-coupled receptor kinase 4 (Homo sapiens) (UniProt P32298); conditions: Compound concentration 100.0 nM
[25] = molecular target: Rho-associated protein kinase 2 (Homo sapiens, UniProt O75116); conditions: Compound concentration 100.0 nM
[26] = molecular target: Proto-oncogene tyrosine-protein kinase receptor Ret (Homo sapiens) (UniProt P07949); conditions: Compound concentration 100.0 nM
[27] = molecular target: Kappa-type opioid receptor (Homo sapiens, UniProt P41145); experiment: GPCRScan assay: inhibition of KOR; set-up: radioligand conc. used [nm] 0.6 – 1.2, parental cells stable HEK

Serine/threonine-protein kinase Nek1 (Homo sapiens), sequence (Q96PY6 whole entry): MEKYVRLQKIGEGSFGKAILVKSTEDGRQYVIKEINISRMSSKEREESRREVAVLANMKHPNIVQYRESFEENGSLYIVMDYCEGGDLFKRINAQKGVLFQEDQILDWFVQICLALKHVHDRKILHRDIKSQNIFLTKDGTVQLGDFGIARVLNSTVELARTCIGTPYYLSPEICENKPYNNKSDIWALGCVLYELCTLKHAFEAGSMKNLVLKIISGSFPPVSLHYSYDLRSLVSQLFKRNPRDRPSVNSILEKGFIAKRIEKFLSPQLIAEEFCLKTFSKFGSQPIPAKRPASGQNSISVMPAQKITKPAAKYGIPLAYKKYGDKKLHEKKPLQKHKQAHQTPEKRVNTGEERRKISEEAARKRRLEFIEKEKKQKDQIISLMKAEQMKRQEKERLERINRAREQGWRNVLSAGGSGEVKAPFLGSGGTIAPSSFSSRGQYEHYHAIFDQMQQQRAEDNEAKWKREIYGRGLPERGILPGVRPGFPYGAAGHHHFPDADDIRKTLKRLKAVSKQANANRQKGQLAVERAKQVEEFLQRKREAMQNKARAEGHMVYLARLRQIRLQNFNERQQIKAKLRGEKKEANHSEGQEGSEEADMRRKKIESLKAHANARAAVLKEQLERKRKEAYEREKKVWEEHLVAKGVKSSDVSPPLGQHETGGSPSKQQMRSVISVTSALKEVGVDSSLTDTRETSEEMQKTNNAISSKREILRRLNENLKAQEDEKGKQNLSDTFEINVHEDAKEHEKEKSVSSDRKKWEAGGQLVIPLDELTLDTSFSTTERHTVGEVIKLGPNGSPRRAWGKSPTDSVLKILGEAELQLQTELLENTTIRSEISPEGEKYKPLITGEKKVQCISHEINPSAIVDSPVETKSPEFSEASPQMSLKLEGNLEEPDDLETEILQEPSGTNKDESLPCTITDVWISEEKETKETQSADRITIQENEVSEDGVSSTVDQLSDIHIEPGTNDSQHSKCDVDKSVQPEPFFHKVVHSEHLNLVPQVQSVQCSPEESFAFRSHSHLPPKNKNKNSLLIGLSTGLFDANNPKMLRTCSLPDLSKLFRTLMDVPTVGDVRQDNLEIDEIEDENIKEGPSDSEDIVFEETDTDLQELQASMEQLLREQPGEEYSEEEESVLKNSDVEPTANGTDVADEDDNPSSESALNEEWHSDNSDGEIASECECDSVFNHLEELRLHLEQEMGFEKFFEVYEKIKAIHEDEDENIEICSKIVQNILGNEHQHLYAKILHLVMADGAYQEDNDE
Homeodomain-interacting protein kinase 2 (Homo sapiens), sequence (Q9H2X6 whole entry, looked up): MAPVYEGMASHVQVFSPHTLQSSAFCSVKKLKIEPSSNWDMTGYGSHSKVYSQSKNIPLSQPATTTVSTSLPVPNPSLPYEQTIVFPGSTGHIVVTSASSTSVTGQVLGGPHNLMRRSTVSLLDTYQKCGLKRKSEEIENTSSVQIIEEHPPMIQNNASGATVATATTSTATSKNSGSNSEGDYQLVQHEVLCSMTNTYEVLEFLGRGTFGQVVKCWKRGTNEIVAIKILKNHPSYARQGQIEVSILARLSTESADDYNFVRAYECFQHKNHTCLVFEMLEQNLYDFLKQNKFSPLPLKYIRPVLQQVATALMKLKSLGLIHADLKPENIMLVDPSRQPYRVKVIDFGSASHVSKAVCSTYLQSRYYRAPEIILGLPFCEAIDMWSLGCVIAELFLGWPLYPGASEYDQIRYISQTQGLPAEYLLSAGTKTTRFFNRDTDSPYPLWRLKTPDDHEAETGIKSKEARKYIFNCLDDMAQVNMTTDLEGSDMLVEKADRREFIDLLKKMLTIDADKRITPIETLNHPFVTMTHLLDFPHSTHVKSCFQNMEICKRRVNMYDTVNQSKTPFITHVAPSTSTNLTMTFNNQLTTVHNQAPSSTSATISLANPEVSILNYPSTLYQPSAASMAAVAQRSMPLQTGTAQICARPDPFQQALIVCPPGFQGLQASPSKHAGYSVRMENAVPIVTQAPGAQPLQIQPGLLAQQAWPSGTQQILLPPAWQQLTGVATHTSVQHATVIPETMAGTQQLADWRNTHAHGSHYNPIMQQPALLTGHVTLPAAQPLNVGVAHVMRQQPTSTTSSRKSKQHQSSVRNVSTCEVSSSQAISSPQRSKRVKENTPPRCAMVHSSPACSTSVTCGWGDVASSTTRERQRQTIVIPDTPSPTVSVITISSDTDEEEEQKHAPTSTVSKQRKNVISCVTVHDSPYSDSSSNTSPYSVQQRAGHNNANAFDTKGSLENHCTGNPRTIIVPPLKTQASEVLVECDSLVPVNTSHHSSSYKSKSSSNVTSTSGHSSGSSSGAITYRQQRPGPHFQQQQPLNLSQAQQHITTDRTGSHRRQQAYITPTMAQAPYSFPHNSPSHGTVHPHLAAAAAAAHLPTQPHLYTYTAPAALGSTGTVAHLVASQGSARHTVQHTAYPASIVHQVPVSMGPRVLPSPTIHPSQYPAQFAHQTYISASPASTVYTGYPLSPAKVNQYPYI
Testis-specific serine/threonine-protein kinase 1 (Homo sapiens), sequence (Q9BXA7 whole entry): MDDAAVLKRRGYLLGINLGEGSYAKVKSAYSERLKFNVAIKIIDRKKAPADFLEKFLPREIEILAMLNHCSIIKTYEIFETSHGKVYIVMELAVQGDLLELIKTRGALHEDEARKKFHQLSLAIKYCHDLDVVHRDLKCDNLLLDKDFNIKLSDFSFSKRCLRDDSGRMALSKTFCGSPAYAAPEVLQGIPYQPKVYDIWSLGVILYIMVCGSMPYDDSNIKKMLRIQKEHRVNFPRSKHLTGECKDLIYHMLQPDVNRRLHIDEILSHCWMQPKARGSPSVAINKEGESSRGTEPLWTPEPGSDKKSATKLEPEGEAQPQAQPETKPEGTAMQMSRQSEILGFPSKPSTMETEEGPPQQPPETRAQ
Tyrosine-protein kinase ABL1 (Homo sapiens), sequence (P00519 whole entry): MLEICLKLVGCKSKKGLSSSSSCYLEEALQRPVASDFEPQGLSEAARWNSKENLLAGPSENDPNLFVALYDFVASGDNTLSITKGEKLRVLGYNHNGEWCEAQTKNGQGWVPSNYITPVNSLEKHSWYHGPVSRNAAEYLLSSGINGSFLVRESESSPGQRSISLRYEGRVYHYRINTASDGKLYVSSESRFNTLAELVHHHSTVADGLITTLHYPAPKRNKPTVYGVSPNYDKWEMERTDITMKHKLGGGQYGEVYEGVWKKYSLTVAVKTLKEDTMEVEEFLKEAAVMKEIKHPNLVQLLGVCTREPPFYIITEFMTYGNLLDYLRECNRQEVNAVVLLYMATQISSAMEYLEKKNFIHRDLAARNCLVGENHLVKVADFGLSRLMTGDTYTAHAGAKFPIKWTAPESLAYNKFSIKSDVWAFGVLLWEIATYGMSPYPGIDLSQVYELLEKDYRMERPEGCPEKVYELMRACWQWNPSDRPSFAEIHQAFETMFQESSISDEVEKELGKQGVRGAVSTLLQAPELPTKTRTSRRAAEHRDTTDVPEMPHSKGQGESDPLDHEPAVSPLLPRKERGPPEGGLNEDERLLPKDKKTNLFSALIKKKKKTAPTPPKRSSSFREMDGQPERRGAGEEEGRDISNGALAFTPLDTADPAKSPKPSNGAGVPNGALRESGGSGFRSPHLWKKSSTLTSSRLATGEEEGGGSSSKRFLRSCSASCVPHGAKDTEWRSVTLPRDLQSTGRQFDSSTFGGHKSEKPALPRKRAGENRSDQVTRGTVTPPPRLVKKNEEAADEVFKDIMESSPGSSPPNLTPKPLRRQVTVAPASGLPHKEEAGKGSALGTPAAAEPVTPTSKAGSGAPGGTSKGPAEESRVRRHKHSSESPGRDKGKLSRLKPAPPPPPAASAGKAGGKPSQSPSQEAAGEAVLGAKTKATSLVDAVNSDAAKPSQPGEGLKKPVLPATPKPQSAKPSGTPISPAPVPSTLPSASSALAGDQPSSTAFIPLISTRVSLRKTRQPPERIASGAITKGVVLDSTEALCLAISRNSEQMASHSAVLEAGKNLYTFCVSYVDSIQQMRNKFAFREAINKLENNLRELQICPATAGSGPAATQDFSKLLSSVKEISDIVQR
Mast/stem cell growth factor receptor Kit (Homo sapiens), sequence (P10721 whole entry, the tested form may be a part): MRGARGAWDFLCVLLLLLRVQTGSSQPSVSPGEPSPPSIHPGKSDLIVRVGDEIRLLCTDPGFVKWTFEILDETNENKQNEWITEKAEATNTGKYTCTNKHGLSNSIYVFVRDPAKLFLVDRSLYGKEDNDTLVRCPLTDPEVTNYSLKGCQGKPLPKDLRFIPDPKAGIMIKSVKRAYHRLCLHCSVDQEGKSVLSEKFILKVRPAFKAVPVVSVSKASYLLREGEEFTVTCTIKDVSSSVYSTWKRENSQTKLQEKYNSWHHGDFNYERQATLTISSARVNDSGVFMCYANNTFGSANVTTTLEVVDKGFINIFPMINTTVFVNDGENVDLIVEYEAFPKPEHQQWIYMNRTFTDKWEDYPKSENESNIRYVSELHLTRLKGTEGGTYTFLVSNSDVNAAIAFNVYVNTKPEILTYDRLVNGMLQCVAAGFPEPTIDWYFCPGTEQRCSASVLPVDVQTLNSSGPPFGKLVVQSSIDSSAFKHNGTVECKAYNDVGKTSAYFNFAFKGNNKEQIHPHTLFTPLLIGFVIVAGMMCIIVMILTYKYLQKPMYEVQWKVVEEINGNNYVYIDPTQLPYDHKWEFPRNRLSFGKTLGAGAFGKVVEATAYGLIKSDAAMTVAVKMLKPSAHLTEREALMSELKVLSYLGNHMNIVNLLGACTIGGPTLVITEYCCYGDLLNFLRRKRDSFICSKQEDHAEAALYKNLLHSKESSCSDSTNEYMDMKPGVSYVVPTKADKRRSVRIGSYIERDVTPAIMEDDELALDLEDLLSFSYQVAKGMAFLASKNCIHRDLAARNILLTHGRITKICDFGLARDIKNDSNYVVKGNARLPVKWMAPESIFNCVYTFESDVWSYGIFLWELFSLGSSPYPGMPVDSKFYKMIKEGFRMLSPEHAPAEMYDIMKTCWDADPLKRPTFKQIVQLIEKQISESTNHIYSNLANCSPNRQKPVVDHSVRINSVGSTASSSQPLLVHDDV

In the case of `Cn1cc(Cl)c2c(Oc3c(F)cc(Nc4cc(Cl)nc(N)n4)cc3F)ccnc21` [BAY-4900], the residual activity [1] is reported as 100%, the residual activity [2] is reported as 98% and the residual activity [3] is reported as 97%. The residual activity [4] was 93%, the residual activity [5] was 95% and the residual activity [6] was 83%. It also gave a residual activity [7] of 100%, a residual activity [8] of 92% and a residual activity [9] of 88%. The residual activity [10] was 100%, the residual activity [11] was 100% and the residual activity [12] was 100%. It also gave a residual activity [13] of 96%, a residual activity [14] of 84% and a residual activity [15] of 87%. It also gave a residual activity [16] of 100%, a residual activity [17] of 100% and a residual activity [18] of 100%. The residual activity [19] was 62%, the residual activity [20] was 79% and the residual activity [21] was 91%. For the same molecule, the residual activity [22] was 74%, the residual activity [23] was 100% and the residual activity [24] was 100%. The residual activity [25] was 83%, the residual activity [26] was 99% and the Ki [27] was 391 nM.
Molecule `Cc1c[nH]c2nccc(Oc3c(F)cc(Nc4cc(Cl)nc(N)n4)cc3F)c12` [BAY-549] has a residual activity [1] of 100%, a residual activity [2] of 97% and a residual activity [3] of 97%. It also gave a residual activity [4] of 96%, a residual activity [5] of 75% and a residual activity [6] of 88%. For the same molecule, the residual activity [7] was 100%, the residual activity [8] was 36% and the residual activity [9] was 100%. It also gave a residual activity [10] of 95%, a residual activity [11] of 96% and a residual activity [12] of 77%. For the same molecule, the residual activity [13] was 100%, the residual activity [14] was 67% and the residual activity [15] was 94%. For the same molecule, the residual activity [16] was 90%, the residual activity [17] was 100% and the residual activity [18] was 84%. It also gave a residual activity [19] of 83%, a residual activity [20] of 83% and a residual activity [21] of 90%. For the same molecule, the residual activity [22] was 55%, the residual activity [23] was 97% and the residual activity [24] was 100%. It also gave a residual activity [25] of 0.9%, a residual activity [26] of 97% and a Ki [27] of 187 nM.
